Data published in US20070032443A1, “Therapy for Alzheimer's disease” (priority 2005, published 2007).

Tested on: HEK293 cells
Assay: Viability of HEK293 cells in culture with test compound
Assay type: cell-based, human
Design: key: ns: results are not shown due to poor viability of HEK293 cells in culture at the indicated compound concentration
Conditions: 10^−3 dilution of working concentration of Table 4 (D 0.1 millimolar); 6 days of culture

## O=P(O)(O)C(O)(Cn1ccnc1)P(=O)(O)O [Compound D, zolendronic acid]
  Viability of HEK293 cells in culture: ns^2
